Assay [1] concerns Glomerella lagenarium (Colletotrichum lagenarium). As to the kind of experiment: Fungicidal activity against Glomerella lagenarium (Colletotrichum lagenarium) liquid culture / cucumber / preventative (anthracnose). In kind it is cell-based. The note with it: Colletotrichum orbiculare; 20 ppm in the applied formulation; liquid culture (PDB), growth inhibition measured photometrically after 3 to 4 days; compared to untreated control; read-out: disease control. The method, boiled down:
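Photometric read-out of fungal growth after 2–7 days, expressed as percent antifungal activity versus untreated check. Cryo-stored conidia in PDB; compound at 20 ppm; dark, 24 °C, 96% RH.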

A further assay concerns Phakopsora Pachyrhizi. Kind of assay: Fungicidal activity against Phakopsora pachyrhizi / soybean / leaf disc preventative (Asian soybean rust). The conditions noted are these: foliar, 200 ppm in the applied formulation, soybean leaf disks, compared to untreated control leaf disks, read-out: disease control. In kind it is in vivo. The method, boiled down:
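Preventative soybean leaf-disc test: discs on water agar sprayed with diluted formulated compound, inoculated one day later with spores on the lower surface. Held 24–36 h dark at 20°C, 75% rh, then 12 h light/day; percent disease control versus untreated discs scored 12–14 days after application.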

In assay [2] the test system is Puccinia recondita f. Sp. Tritici. As to the kind of experiment: Fungicidal activity against Puccinia recondita f. sp. tritici / wheat / leaf disc curative (brown rust). In kind it is in vivo. The conditions noted are these: foliar, 24 h, 200 ppm in the applied formulation, wheat leaf segments, curative (applied 1 day after inoculation), compared to untreated control leaf disks, read-out: disease control. The method, boiled down:
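Segments of wheat cv. Kanzler were laid on agar and inoculated with a spore suspension of the rust, then held in darkness at 19° C and 75% relative humidity. One day later the water-diluted formulated compound was applied, with incubation continued under a 12 h light/dark cycle.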

The test system is the same in assay [3]. As to the kind of experiment: Fungicidal activity against Puccinia recondita f. sp. tritici / wheat / leaf disc preventative (brown rust). In kind it is in vivo. The note with it: foliar, 200 ppm in the applied formulation, wheat leaf segments, preventative, compared to untreated control leaf disks, read-out: disease control. The method, boiled down:
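Preventative leaf-segment test, wheat cv. Kanzler on water agar. Spray compound at 200 ppm, inoculate with spores 1 day later; 19° C., 75% rh, 12/12 h light. Read-out: % disease control vs untreated, 7 to 9 days after application.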

In the case of `CCC(=O)N(Cc1ccc(-c2noc(C(F)(F)F)n2)cn1)OC` [Compound 1.571, N-methoxy-N-[[5-[5-(trifluoromethyl)-1,2,4-oxadiazol-3-yl]-2-pyridyl]methyl]-propanamide], the inhibition of growth at 20 ppm in assay [1] is at least 80%. Besides, the pest or weed control at 200 ppm (with Phakopsora Pachyrhizi; in assay [2]) was at least 80% in each case.
`CCC(=O)N(Cc1ccc(-c2noc(C(F)(F)F)n2)cc1F)OC` [Compound 1.568, N-[[2-fluoro-4-[5-(trifluoromethyl)-1,2,4-oxadiazol-3-yl]phenyl]methyl]-N-methoxy-propanamide]: in assay [1], the inhibition of growth at 20 ppm was at least 80%. The pest or weed control at 200 ppm (with Phakopsora Pachyrhizi; in assay [2]) was at least 80% each time.
On to `CON(Cc1ccc(-c2noc(C(F)(F)F)n2)cc1)C(=O)N1CCOCC1` [Compound 3.1, N-methoxy-N-[[4-[5-(trifluoromethyl)-1,2,4-oxadiazol-3-yl]phenyl]methyl]-morpholine-4-carboxamide], for which the inhibition of growth at 20 ppm in assay [1] is at least 80%. Also, the pest or weed control at 200 ppm (in the assay with Phakopsora Pachyrhizi; in assay [2]) was at least 80% each time.
With `C#CCN(Cc1ccc(-c2noc(C(F)(F)F)n2)cc1)C(=O)C1CSC1` [Compound 1.172, N-prop-2-ynyl-N-[[4-[5-(trifluoromethyl)-1,2,4-oxadiazol-3-yl]phenyl]methyl]-thietane-3-carboxamide], the pest or weed control at 200 ppm (in assay [3]; in the assay on Phakopsora Pachyrhizi; in assay [2]) was at least 80% throughout.
As for `CCOCC(=O)N(Cc1ccc(-c2noc(C(F)(F)F)n2)cc1)C(C)CC` (stereo not shown) [Compound 1.383, 2-ethoxy-N-sec-butyl-N-[[4-[5-(trifluoromethyl)-1,2,4-oxadiazol-3-yl]phenyl]methyl]-acetamide], the pest or weed control at 200 ppm (in assay [3]; in the assay with Phakopsora Pachyrhizi; in assay [2]) was at least 80% each time.
Turning to `O=C(C1CCOC1)N(CCO)Cc1ccc(-c2noc(C(F)(F)F)n2)cc1` (stereo not shown) [Compound 1.711, N-(2-hydroxyethyl)-N-[[4-[5-(trifluoromethyl)-1,2,4-oxadiazol-3-yl]phenyl]methyl]-tetrahydrofuran-3-carboxamide], the pest or weed control at 200 ppm (in assay [3]; with Phakopsora Pachyrhizi; in assay [2]) was at least 80% each time.
As to `COC(=O)N(Cc1ccc(-c2noc(C(F)(F)F)n2)cc1)OC` [Compound 2.3, methyl N-methoxy-N-[[4-[5-(trifluoromethyl)-1,2,4-oxadiazol-3-yl]phenyl]methyl]carbamate], the inhibition of growth at 20 ppm in assay [1] is at least 80%. Moreover, the pest or weed control at 200 ppm (with Phakopsora Pachyrhizi; in assay [2]) was at least 80% in each case.
As for `CC1(C(=O)ON(Cc2ccc(-c3noc(C(F)(F)F)n3)cc2)C(=O)C2(C)COC2)COC1` [Compound 1.767, [(3-methyloxetane-3-carbonyl)-[[4-[5-(trifluoromethyl)-1,2,4-oxadiazol-3-yl]phenyl]methyl]-amino] 3-methyloxelane-3-carboxylate], the pest or weed control at 200 ppm (in assay [3]; with Phakopsora Pachyrhizi; in assay [2]) was at least 80% each time.
As to `CON(Cc1ccc(-c2noc(C(F)(F)F)n2)cc1)C(=O)C1C(C)(C)C1(C)C` [Compound 1.14, N-methoxy-2,2,3,3-tetramethyl-N-[[4-[5-(trifluoromethyl)-1,2,4-oxadiazol-3-yl]phenyl]methyl]-cyclopropane-carboxamide], the pest or weed control at 200 ppm (in the assay on Phakopsora Pachyrhizi; in assay [2]) was at least 80% in each case.
As to `COCCC(=O)N(Cc1ccc(-c2noc(C(F)(F)F)n2)cc1)CC(F)(F)F` [Compound 1.693, 3-methoxy-N-(2,2,2-trifluoroethyl)-N-[[4-[5-(trifluoromethyl)-1,2,4-oxadiazol-3-yl]phenyl]methyl]-propanamide], the inhibition of growth at 20 ppm in assay [1] was at least 80%. In addition, the pest or weed control at 200 ppm (in the assay on Phakopsora Pachyrhizi; in assay [2]) was at least 80% each time.
On to `COCCOC(=O)N(Cc1ccc(-c2noc(C(F)(F)F)n2)cc1)OC` [Compound 2.2, 2-methoxyethyl N-methoxy-N-[[4-[5-(trifluoromethyl)-1,2,4-oxadiazol-3-yl]phenyl]methyl]-carbamate], for which, in assay [1], the inhibition of growth at 20 ppm is at least 80%. The pest or weed control at 200 ppm (in the assay with Phakopsora Pachyrhizi; in assay [2]) was at least 80% throughout.
Regarding `CON(Cc1ccc(-c2noc(C(F)(F)F)n2)cc1)C(=O)c1ccc(Cl)cc1` [Compound 1.71, 4-chloro-N-methoxy-N-[[4-[5-(trifluoromethyl)-1,2,4-oxadiazol-3-yl]phenyl]methyl]-benzamide], the inhibition of growth at 20 ppm in assay [1] is at least 80%. The pest or weed control at 200 ppm (with Phakopsora Pachyrhizi; in assay [2]) was at least 80% throughout.
For `CCCC(=O)N(Cc1ccc(-c2noc(C(F)(F)F)n2)cc1)CC1CC1` [Compound 1.210, N-(cyclopropylmethyl)-N-[[4-[5-(trifluoromethyl)-1,2,4-oxadiazol-3-yl]phenyl]methyl]-butanamide], the inhibition of growth at 20 ppm in assay [1] is at least 80%. The pest or weed control at 200 ppm (in the assay on Phakopsora Pachyrhizi; in assay [2]) was at least 80% throughout.
For the compound `O=C(C1CC1(F)F)N(Cc1ccc(-c2noc(C(F)(F)F)n2)cc1)CC1CC1` (stereo not shown) [Compound 1.207, N-(cyclopropylmethyl)-2,2-difluoroN-[[4-[5-(trifluoromethyl)-1,2,4-oxadiazol-3-yl]phenyl]methyl]-cyclopropane-carboxamide], the inhibition of growth at 20 ppm in assay [1] was at least 80%. Moreover, the pest or weed control at 200 ppm (in the assay with Phakopsora Pachyrhizi; in assay [2]) was at least 80% each time.
With `CCCN(Cc1ccc(-c2noc(C(F)(F)F)n2)cc1)C(=O)CC(F)(F)F` [Compound 1.667, 3,3,3-trifluoroN-propyl-N-[[4-[5-(trifluoromethyl)-1,2,4-oxadiazol-3-yl]phenyl]methyl]-propanamide], the inhibition of growth at 20 ppm in assay [1] is at least 80%. For the same compound, the pest or weed control at 200 ppm (with Phakopsora Pachyrhizi; in assay [2]) was at least 80% each time.
`O=C(C1CC1)N(Cc1ccc(-c2noc(C(F)(F)F)n2)cc1)CC(F)(F)F` [Compound 1.586, N-(2,2,2-trifluoroethyl)-N-[[4-[5-(trifluoromethyl)-1,2,4-oxadiazol-3-yl]phenyl]methyl]-cyclopropane-carboxamide]: the inhibition of growth at 20 ppm in assay [1] was at least 80%. Also, the pest or weed control at 200 ppm (in the assay with Phakopsora Pachyrhizi; in assay [2]) was at least 80% in each case.
In the case of `CON(Cc1ccc(-c2noc(C(F)(F)F)n2)cc1)C(=O)C1(c2ccccc2)CC1` [Compound 1.23, N-methoxy-1-phenyl-N-[[4-[5-(trifluoromethyl)-1,2,4-oxadiazol-3-yl]phenyl]methyl]-cyclopropane-carboxamide], the inhibition of growth at 20 ppm in assay [1] was at least 80%. The pest or weed control at 200 ppm (with Phakopsora Pachyrhizi; in assay [2]) was at least 80% throughout.
Regarding `CCCON(Cc1ccc(-c2noc(C(F)(F)F)n2)cc1)C(=O)C1CCCO1` (stereo not shown) [Compound 1.312, N-propoxy-N-[[4-[5-(trifluoromethyl)-1,2,4-oxadiazol-3-yl]phenyl]methyl]-tetrahydrofuran-2-carboxamide], the inhibition of growth at 20 ppm in assay [1] was at least 80%. In addition, the pest or weed control at 200 ppm (in assay [3]; in the assay with Phakopsora Pachyrhizi) was at least 80% throughout.
For the compound `O=C(C1CC1F)N(Cc1ccc(-c2noc(C(F)(F)F)n2)cc1)Cc1ccco1` (stereo not shown) [Compound 1.471, 2-fluoro-N-(2-furylmethyl)-N-[[4-(5-(trifluoromethyl)-1,2,4-oxadiazol-3-yl]phenyl]methyl]-cyclopropane-carboxamide], the inhibition of growth at 20 ppm in assay [1] was at least 80%. For the same compound, the pest or weed control at 200 ppm (in assay [3]; with Phakopsora Pachyrhizi) was at least 80% each time.
For `O=C(c1ccccc1Cl)N(O)Cc1ccc(-c2noc(C(F)(F)F)n2)cc1` [Compound 1.754, 2-chloro-N-hydroxy-N-[[4-[5-(trifluoromethyl)-1,2,4-oxadiazol-3-yl]phenyl]methyl]-benzamide], the inhibition of growth at 20 ppm in assay [1] was at least 80%. The pest or weed control at 200 ppm (in assay [3]; with Phakopsora Pachyrhizi) was at least 80% each time.
In the case of `CC(C)N(Cc1ccc(-c2noc(C(F)(F)F)n2)cc1)C(=O)c1ccccc1Cl` [Compound 1.672, 2-chloro-N-isopropyl-N-[[4-[5-(trifluoromethyl)-1,2,4-oxadiazol-3-yl]phenyl]methyl]-benzamide], the inhibition of growth at 20 ppm in assay [1] is at least 80%. Also, the pest or weed control at 200 ppm (in assay [3]; in the assay on Phakopsora Pachyrhizi) was at least 80% each time.
As to `COC(C)C(=O)N(Cc1ccc(-c2noc(C(F)(F)F)n2)cc1)C1COC1` (stereo not shown) [Compound 1.750, 2-methoxy-N-(oxetan-3-yl)-N-[[4-[5-(trifluoromethyl)-1,2,4-oxadiazol-3-yl]phenyl]methyl]-propanamide], the pest or weed control at 200 ppm (with Phakopsora Pachyrhizi; in assay [2]) was at least 80% each time.

Source of the values: patent US11180462B2, “Microbiocidal oxadiazole derivatives” (SYNGENTA PARTICIPATIONS AG, priority 2015, dated 2021).
